Data reported in patent publication US20130030048A1, “COMPOSITION FOR INDUCING MULTIPLE NUCLEAR DIVISION OF CELLS” (priority 2010, published 2013).

Tested on: Human Mammary Epithelial (HME) 50 HT cell line
Assay: Multiple nuclear divisions in cultured HME 50 HT cells
Assay type: cell-based
Conditions: HME 50 HT cells in serum-free medium; FIGS. 3 and 4
Experimental: Such a culture medium was treated with the composition comprising the compound of formula II obtained in the Example 1 and the compound of formula III obtained in the Examples 2 to 5, respectively.
And, it was found from the photomicrographs that the cells appeared very healthy and unstressed.

Structure (SMILES): CCC1(N)C(=O)COC=C1C (centres unmarked) [compound of formula III]
- multiple nuclear divisions in the cell (stained-cell image): multiple nuclear divisions occurred in the cell

Structure (SMILES): C=CC1(N)C(=O)COC=C1C (centres unmarked) [compound of formula II]
- multiple nuclear divisions in the cell (stained-cell image): multiple nuclear divisions occurred in the cell
